We go through nine compounds from US10189796B2, “[4-(1,3,3-trimethyl-2-oxo-3,4-dihydro-1H-quinoxalin-7-yl)phenoxy]ethyloxy compound or salt thereof” (SANTEN PHARMACEUTICAL CO., LTD., priority 2015, dated 2019).

The subject of experiment [1] is TNFα production in rat whole blood. As to the kind of experiment: TNFα production inhibitory action evaluation test (LPS stimulation ex vivo, ELISA). The class given is cell-based. The settings on record: 20 hours, 200 μM test compound solution 10 μL/well, DEX treated group = 100, read-out: TNFα production inhibitory ratio (% DEX). In outline: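 Pooled heparinized rat whole blood preincubated 1 h at 37 °C, compound added for 1 h (solution prepared at 200 μM), then LPS (2 μg/mL solution) and culture for 20 h. Supernatant TNFα by ELISA; inhibition normalized to LPS and unstimulated controls, then expressed as Efficacy (% DEX).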
(In an ELISA, binding on a coated surface is turned into a signal by an enzyme label.)

A further experiment concerns the target Recombinant human GR (Homo sapiens (Human), UniProt P04150). As to the kind of experiment: GR competitive binding assay by fluorescence polarization. Conditions: 20 μM test compound solution, 10 μL/well; 2 hours; DEX positive control; read-out: GR binding rate (%). In outline: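 Fluorescence polarization competition between test compound and Fluormone GS1 fluorescent glucocorticoid ligand for recombinant human GR. Buffer 10 mM potassium phosphate pH 7.4, 20 mM Na2MoO4, 0.1 mM EDTA, 5 mM DTT, 2% DMSO. 2 h dark incubation at room temperature; binding ratio (%) scaled between buffer-only and DEX controls.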
(In general: Polarisation of emitted light reports the rotation of a fluorescent probe.)

SMILES strings stand for the structures.

Sequence of Recombinant human GR (P04150 whole entry): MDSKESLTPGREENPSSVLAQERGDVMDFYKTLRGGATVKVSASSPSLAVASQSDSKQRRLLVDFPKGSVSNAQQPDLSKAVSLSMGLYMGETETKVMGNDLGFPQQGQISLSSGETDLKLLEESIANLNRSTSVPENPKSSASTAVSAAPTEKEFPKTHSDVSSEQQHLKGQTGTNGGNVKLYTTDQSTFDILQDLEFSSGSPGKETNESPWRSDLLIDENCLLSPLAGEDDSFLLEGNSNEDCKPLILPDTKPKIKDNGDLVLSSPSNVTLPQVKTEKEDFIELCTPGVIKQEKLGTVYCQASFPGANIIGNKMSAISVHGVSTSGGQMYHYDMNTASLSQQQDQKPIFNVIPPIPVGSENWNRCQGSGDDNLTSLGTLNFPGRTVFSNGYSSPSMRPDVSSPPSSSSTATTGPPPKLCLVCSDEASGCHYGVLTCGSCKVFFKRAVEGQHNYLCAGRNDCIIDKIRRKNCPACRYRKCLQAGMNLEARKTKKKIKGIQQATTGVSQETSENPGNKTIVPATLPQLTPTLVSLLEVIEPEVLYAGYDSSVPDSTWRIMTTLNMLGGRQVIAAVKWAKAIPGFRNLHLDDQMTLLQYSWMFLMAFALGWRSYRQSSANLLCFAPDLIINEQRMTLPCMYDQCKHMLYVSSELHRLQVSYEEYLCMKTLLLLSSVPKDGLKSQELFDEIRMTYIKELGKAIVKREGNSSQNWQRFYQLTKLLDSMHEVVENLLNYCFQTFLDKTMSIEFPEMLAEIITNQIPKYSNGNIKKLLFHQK

Turning to `COc1ccc(-c2ccc3c(c2COc2cc(F)ccc2C)N(C)C(=O)C(C)(C)N3)c(OC)c1` [Control compound E, 7-(2,4-dimethoxyphenyl)-8-(5-fluoro-2-methyl-phenoxymethyl)-1,3,3-trimethyl-3,4-dihydro-1H-quinoxalin-2-one, reference compound], the Emax in experiment [1] was determined as 0%. On Recombinant human GR, the inhibition at 10 µM stood at 98%.

For `COc1cc(OC[C@@H](O)CC#N)ccc1-c1ccc2c(c1COc1cc(F)ccc1C)N(C)C(=O)C(C)(C)N2` [Compound 5-2, (S)-7-[4-(3-cyano-2-hydroxypropyl)oxy-2-methoxyphenyl]-8-(5-fluoro-2-methyl-phenoxymethyl)-1,3,3-trimethyl-3,4-dihydro-1H-quinoxalin-2-one], the Emax in experiment [1] was above 99%. Moreover, the inhibition at 10 µM on Recombinant human GR was above 99%.

For the compound `COc1ccc(O)cc1-c1ccc2c(c1COc1cc(F)ccc1C)N(C)C(=O)C(C)(C)N2` [Control compound C, 8-(5-fluoro-2-methylphenoxymethyl)-7-(5-hydroxy-2-methoxyphenyl)-1,3,3-trimethyl-3,4-dihydro-1H-quinoxalin-2-one], the inhibition at 10 µM on Recombinant human GR was above 99%.

With `COc1cc(OC[C@@H](O)CCO)ccc1-c1ccc2c(c1COc1cc(F)ccc1C)N(C)C(=O)C(C)(C)N2` [Compound 2-1, (S)-7-[4-(2,4-dihydroxybutyl)oxy-2-methoxyphenyl]-8-(5-fluoro-2-methyl-phenoxymethyl)-1,3,3-trimethyl-3,4-dihydro-1H-quinoxalin-2-one], the Emax in experiment [1] was found to be 97%. Moreover, the inhibition at 10 µM on Recombinant human GR was above 99%.

Regarding `COc1cc(OC[C@H](C)OC(=O)CN(C)C)ccc1-c1ccc2c(c1COc1cc(F)ccc1C)N(C)C(=O)C(C)(C)N2` [Compound 11-1, (S)-7-[4-[2-(N,N-dimethylaminoacetoxy)propyl]oxy-2-methoxyphenyl]-8-(5-fluoro-2-methylphenoxymethyl)-1,3,3-trimethyl-3,4-dihydro-1H-quinoxalin-2-one], the inhibition at 10 µM at Recombinant human GR came out at 99%.

Regarding `COc1ccc(CO)cc1-c1ccc2c(c1COc1cc(F)ccc1C)N(C)C(=O)C(C)(C)N2` [Control compound B, 8-(5-fluoro-2-methylphenoxymethyl)-7-(5-hydroxymethyl-2-methoxyphenyl)-1,3,3-trimethyl-3,4-dihydro-1H-quinoxalin-2-one, reference compound], in experiment [1], the Emax is 77%. Further, the inhibition at 10 µM at Recombinant human GR is above 99%.

Consider `COCOc1ccc(-c2ccc3c(c2COc2cc(F)ccc2C)N(C)C(=O)C(C)(C)N3)c(OC)c1` [Control compound F, 8-(5-fluoro-2-methylphenoxymethyl)-7-(2-methoxy-4-methoxymethoxyphenyl)-1,3,3-trimethyl-3,4-dihydro-1H-quinoxalin-2-one, reference compound], for which the Emax in experiment [1] turned out to be 69%. Moreover, the inhibition at 10 µM at Recombinant human GR worked out at 94%.

`COc1cc(OC[C@H](C)O)ccc1-c1ccc2c(c1COc1cc(F)ccc1C)N(C)C(=O)C(C)(C)N2` [Compound 1-1, (S)-8-(5-fluoro-2-methylphenoxymethyl)-7-[4-(2-hydroxypropyl)oxy-2-methoxy-phenyl]-1,3,3-trimethyl-3,4-dihydro-1H-quinoxalin-2-one]: the Emax in experiment [1] was 81%. The inhibition at 10 µM at Recombinant human GR is above 99%.

With `CCCC(=O)Oc1ccc(-c2ccc3c(c2COc2cc(F)ccc2C)N(C)C(=O)C(C)(C)N3)c(OC)c1` [Control compound D, 7-(4-butyryloxy-2-methoxyphenyl)-8-(5-fluoro-2-methylphenoxymethyl)-1,3,3-trimethyl-3,4-dihydro-1H-quinoxalin-2-one, reference compound], the inhibition at 10 µM at Recombinant human GR came out at 98%.
